From patent US5364615A (priority 1992, dated 1994)

What was measured:
[1] = literature, cited from earlier work
Pneumocystis carinii = conditions: human, in vivo
Description: The initial diagnosis of P. carinii pneumonia was based on finding the organism in induced sputum or bronchoalveolar lavage specimens.
Treatment was as described in Example 3.
Chest radiographs and arterial blood gas tensions were obtained as clinically indicated.

[2] = human, in vivo

## N=C(N)c1ccc(OCCCCCOc2ccc(C(=N)N)cc2)cc1 [pentamidine, p,p'-(pentamethylenedioxy)dibenzamidine]
[1]
  Toxicity Req Change of Therapy, %: 55%
[1]; parenteral pentamidine, TMP-SMX
  rate of severe reactions: 50%
Pneumocystis carinii
  clinical response (hypoxia, fever, dyspnea, radiographs): none of the patients were hypoxic or febrile, all had improvement in dyspnea, and all had current or subsequent chest radiographs indicating roentrographic improvement of infiltrates
  completion of therapy: All patients successfully completed therapy
[2]
  frequent adverse effect observed clinically: transient airway irritation
